Reference: EP4745135A1 (Gluetacs Therapeutics (Shanghai) Co., Ltd., priority 2023, dated 2025)

Columns and labels:
CK1α = target: T1, CK1α (Homo sapiens, UniProt P48729+Q96SW2); assay: Western blot, degradation of substrate protein in hPBMCs; type: cell-based
T1 construct: effects of the compounds of the present disclosure on the expression of target proteins in cells; endogenous in cells; host or cells: human PBMCs (Milecell Biotechnologies)

IKZF1 = target: T2, IKZF1 (Homo sapiens, UniProt Q13422+Q96SW2); assay: as above; type: cell-based
T2 construct: effects of the compounds of the present disclosure on the expression of target proteins in cells; endogenous in cells; host or cells: human PBMCs (Milecell Biotechnologies)
T2 sequence (Q13422 whole entry): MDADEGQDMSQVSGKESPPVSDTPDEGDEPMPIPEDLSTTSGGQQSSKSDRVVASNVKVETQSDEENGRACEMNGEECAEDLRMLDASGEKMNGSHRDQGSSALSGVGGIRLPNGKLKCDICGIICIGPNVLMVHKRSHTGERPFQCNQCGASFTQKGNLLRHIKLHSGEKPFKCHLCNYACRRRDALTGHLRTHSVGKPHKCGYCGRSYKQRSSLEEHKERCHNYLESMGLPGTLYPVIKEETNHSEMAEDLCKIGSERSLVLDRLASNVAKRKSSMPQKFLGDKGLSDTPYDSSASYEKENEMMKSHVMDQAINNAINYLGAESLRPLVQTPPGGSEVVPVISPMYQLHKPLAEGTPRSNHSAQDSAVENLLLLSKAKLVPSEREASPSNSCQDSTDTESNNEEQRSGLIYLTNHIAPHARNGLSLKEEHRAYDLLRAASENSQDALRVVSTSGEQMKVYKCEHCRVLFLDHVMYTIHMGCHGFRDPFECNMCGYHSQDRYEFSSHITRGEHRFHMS
T2 sequence (Q96SW2 whole entry): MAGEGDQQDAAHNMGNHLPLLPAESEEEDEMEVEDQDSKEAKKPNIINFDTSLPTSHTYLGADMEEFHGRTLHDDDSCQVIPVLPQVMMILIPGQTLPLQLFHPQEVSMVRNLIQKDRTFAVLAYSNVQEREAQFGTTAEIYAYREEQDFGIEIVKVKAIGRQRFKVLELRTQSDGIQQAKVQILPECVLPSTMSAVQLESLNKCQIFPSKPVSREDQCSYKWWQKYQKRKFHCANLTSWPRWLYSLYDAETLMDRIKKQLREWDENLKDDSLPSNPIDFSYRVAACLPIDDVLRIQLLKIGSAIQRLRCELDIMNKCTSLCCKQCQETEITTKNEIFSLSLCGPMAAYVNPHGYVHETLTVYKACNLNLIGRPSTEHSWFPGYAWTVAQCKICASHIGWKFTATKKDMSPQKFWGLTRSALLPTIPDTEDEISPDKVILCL
T2 sequence (Q16531 whole entry partner): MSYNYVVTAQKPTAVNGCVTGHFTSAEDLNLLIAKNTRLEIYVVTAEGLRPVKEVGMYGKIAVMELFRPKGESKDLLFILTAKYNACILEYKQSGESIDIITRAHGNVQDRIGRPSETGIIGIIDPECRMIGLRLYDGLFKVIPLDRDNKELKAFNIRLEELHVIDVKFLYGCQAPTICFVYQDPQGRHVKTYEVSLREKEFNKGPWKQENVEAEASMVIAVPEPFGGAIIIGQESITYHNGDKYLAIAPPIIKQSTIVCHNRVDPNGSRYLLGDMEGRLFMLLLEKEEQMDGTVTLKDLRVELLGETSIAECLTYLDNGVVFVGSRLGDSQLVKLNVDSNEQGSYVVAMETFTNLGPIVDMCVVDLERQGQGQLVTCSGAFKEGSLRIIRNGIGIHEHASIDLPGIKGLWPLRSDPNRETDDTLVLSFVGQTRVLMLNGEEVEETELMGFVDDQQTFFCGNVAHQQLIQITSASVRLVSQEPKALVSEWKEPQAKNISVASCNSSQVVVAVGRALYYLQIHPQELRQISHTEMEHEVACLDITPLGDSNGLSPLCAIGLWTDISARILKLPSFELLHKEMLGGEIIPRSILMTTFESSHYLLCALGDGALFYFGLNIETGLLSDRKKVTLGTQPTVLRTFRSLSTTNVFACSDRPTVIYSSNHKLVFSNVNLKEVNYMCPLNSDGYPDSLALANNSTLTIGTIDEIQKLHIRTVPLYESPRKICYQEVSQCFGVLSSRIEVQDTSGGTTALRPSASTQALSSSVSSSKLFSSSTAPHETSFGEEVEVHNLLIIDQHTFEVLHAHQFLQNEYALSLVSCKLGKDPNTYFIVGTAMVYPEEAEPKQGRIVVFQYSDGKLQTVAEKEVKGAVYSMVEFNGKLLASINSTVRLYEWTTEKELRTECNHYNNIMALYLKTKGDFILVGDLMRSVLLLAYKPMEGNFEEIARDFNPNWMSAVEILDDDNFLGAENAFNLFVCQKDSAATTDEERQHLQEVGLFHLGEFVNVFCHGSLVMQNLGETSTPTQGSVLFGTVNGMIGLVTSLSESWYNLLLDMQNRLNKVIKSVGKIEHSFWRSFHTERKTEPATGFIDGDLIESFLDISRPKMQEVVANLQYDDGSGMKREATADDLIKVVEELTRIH

IKZF2 = target: T3, IKZF2 (Homo sapiens, UniProt Q96SW2+Q9UKS7); assay: as above; type: cell-based
T3 construct: effects of the compounds of the present disclosure on the expression of target proteins in cells; endogenous in cells; host or cells: human PBMCs (Milecell Biotechnologies)
T3 sequence (Q9UKS7 whole entry): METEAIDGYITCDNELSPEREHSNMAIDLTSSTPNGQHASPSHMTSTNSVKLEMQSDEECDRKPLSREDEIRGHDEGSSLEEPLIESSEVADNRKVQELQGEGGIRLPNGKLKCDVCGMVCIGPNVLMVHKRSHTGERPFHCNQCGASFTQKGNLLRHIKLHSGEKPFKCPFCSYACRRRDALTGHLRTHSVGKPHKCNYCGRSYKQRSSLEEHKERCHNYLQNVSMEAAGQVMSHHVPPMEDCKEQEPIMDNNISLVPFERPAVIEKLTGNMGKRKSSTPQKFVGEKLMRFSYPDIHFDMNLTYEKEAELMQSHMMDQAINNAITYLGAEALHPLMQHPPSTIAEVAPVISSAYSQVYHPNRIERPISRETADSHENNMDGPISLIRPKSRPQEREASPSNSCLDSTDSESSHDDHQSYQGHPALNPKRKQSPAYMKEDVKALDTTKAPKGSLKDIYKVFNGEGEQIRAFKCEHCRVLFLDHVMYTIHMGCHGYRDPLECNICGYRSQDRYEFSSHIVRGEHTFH
T3 sequence (Q96SW2 whole entry): as the sequence (Q96SW2 whole entry) above
T3 sequence (Q16531 whole entry partner): as the sequence (Q16531 whole entry partner) above

IKZF3 = target: T4, IKZF3 (Homo sapiens, UniProt Q96SW2+Q9UKT9); assay: as above; type: cell-based
T4 construct: effects of the compounds of the present disclosure on the expression of target proteins in cells; endogenous in cells; host or cells: human PBMCs (Milecell Biotechnologies)
T4 sequence (Q9UKT9 whole entry): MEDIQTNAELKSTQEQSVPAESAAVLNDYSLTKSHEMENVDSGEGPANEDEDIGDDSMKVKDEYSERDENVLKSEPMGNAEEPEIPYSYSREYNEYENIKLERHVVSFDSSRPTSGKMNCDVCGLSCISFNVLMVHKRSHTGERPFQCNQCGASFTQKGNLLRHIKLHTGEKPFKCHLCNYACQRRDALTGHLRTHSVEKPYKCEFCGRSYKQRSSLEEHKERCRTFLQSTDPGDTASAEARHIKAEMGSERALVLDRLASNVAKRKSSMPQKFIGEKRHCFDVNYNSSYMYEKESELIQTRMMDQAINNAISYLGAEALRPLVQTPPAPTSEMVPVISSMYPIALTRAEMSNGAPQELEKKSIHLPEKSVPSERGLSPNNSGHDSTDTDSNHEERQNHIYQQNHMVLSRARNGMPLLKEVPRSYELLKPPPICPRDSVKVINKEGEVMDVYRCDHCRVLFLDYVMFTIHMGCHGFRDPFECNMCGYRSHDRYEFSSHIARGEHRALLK
T4 sequence (Q96SW2 whole entry): as the sequence (Q96SW2 whole entry) above
T4 sequence (Q16531 whole entry partner): as the sequence (Q16531 whole entry partner) above

WEE1 = target: T5, WEE1 (Homo sapiens, UniProt P30291+Q96SW2); assay: as above; type: cell-based
T5 construct: effects of the compounds of the present disclosure on the expression of target proteins in cells; endogenous in cells; host or cells: human PBMCs (Milecell Biotechnologies)
T5 sequence (P30291 whole entry): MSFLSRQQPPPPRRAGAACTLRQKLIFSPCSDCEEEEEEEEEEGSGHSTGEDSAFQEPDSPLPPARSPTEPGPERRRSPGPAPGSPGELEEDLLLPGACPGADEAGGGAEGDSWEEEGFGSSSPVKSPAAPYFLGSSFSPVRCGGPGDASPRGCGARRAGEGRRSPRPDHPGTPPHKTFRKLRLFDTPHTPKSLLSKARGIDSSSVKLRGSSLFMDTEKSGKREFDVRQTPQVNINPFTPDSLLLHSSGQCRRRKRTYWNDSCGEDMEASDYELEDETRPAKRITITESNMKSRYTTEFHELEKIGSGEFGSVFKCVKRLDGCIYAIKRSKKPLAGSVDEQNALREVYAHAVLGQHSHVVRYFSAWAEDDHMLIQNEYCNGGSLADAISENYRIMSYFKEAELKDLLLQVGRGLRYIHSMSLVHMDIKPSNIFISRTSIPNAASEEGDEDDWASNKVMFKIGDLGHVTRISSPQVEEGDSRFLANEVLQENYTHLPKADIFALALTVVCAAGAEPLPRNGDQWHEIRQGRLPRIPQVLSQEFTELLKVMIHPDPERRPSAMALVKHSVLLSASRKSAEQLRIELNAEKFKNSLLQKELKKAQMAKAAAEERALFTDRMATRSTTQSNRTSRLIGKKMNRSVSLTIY
T5 sequence (Q96SW2 whole entry): as the sequence (Q96SW2 whole entry) above
T5 sequence (Q16531 whole entry partner): as the sequence (Q16531 whole entry partner) above

GSPT1 = assay: as above; type: cell-based, Human
[1] = target: T6, human Cereblon WT GST-tagged protein (Homo sapiens, UniProt Q96SW2); assay: CRBN-binding affinity, HTRF (CEREBLON BINDING kit); conditions: for inhibition at 0.5 µM: read-out: Inhibition Rate at 0.5 µM (%); for inhibition at 2 µM: read-out: Inhibition Rate at 2 µM (%)
T6 construct: purchased CISBIO 64BDCRBNPEH
T6 sequence (Q96SW2 whole entry): as the sequence (Q96SW2 whole entry) above

[2] = test system: Human multiple myeloma cell (MM.1S); assay: Tumor cell proliferation inhibition (CellTiter-Meiluncell luminescent cell viability assay); conditions: for inhibition at 0.01 µM / inhibition at 0.5 µM: Homo sapiens, MM1.S, 96 h; for inhibition at 0.01 µM: read-out: Inhibition Rate at 10 nM (%); for inhibition at 0.5 µM: read-out: Inhibition Rate at 500 nM (%)
[3] = Western blot, 24 hours of compound treatment, compounds tested at 50 nM and 500 nM (concentration for the table not stated)
[4] = 24 hours treatment, compounds at 50 nM and 500 nM (concentration behind the class not stated)

T1 sequence (P48729 whole entry): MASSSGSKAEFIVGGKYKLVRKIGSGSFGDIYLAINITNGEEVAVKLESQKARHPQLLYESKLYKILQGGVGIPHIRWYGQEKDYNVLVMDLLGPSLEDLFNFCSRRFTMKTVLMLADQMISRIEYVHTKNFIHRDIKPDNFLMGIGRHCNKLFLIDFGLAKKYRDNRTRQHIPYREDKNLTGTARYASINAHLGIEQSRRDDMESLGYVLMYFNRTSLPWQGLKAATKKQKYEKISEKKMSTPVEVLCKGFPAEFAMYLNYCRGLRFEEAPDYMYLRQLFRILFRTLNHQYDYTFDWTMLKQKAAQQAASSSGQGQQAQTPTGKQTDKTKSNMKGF
T1 sequence (Q96SW2 whole entry): as the sequence (Q96SW2 whole entry) above
T1 sequence (Q16531 whole entry partner): as the sequence (Q16531 whole entry partner) above

inhibition at 0.5 µM [1]	inhibition at 2 µM [1]	Structure (SMILES)	CK1α substrate protein remaining % (CK1α; [3])	IKZF 1 substrate protein remaining % (IKZF1; [3])	IKZF2 substrate protein remaining % (IKZF2; [3])	IKZF3 substrate protein remaining % (IKZF3; [3])	Wee1 substrate protein remaining % (WEE1; [3])	GSPT1 substrate protein remaining % (GSPT1; [3])	inhibition at 0.01 µM [2]	Inhibition Rate at 500 nM (%) ([2]; MM.1S, 96 hours)	inhibition at 0.5 µM [2]	Inhibition Rate at 10 nM (%) ([2]; MM.1S, 10 nM, 96 hours)	CK1α substrate protein remaining % (CK1α; [4])	IKZF 1 substrate protein remaining % (IKZF1; [4])	IKZF2 substrate protein remaining % (IKZF2; [4])	IKZF3 substrate protein remaining % (IKZF3; [4])	Wee1 substrate protein remaining % (WEE1; [4])	GSPT1 substrate protein remaining % (GSPT1; [4])
53 to 60%	80 to 100%	O=C1CCC(N2Cc3cc(CN4C[C@H]5C[C@@H]4CN5c4cccc(Cl)c4Cl)ccc3C2=S)C(=O)N1 (stereo partly drawn) [GT-08477, 3-(5-(((1R,4R)-5-(2,3-dichlorophenyl)-2,5-diazabicyclo[2.2.1]heptan-2-yl)methyl)-1-thioxoisoindolin-2-yl)piperidine-2,6-dione]	B (80%< substrate protein remaining %≤ 100%)	B (80%< substrate protein remaining %≤ 100%)	B (80%< substrate protein remaining %≤ 100%)	A (0% ≤ substrate protein remaining % ≤ 80%)	B (80%< substrate protein remaining %≤ 100%)	A (0% ≤ substrate protein remaining % ≤ 80%)			40 to 50%	la5						
40 to 53%	80 to 100%	O=C1CCC(N2Cc3cc(CN4CC5CCC4CN5c4cccc(Cl)c4Cl)ccc3C2=S)C(=O)N1 (stereo not shown) [GT-08478, 3-(5-((5-(2,3-dichlorophenyl)-2,5-diazabicyclo[2.2.2]octan-2-yl)methyl)-1-thioxoisoindolin-2-yl)piperidine-2,6-dione]	B (80%< substrate protein remaining %≤ 100%)	B (80%< substrate protein remaining %≤ 100%)	B (80%< substrate protein remaining %≤ 100%)	B (80%< substrate protein remaining %≤ 100%)	B (80%< substrate protein remaining %≤ 100%)	A (0% ≤ substrate protein remaining % ≤ 80%)	40 to 50%		50 to 60%							
40 to 53%	80 to 100%	O=C1CCC(N2Cc3cc(CN4CCC(c5ccc(Cl)cc5)CC4)ccc3C2=S)C(=O)N1 (stereo not shown) [GT-08619, 3-(5-((4-(4-chlorophenyl)piperidin-1-yl)methyl)-1-thioxoisoindolin-2-yl)piperidine-2,6-dione]	B (80%< substrate protein remaining %≤ 100%)	B (80%< substrate protein remaining %≤ 100%)	B (80%< substrate protein remaining %≤ 100%)	B (80%< substrate protein remaining %≤ 100%)	B (80%< substrate protein remaining %≤ 100%)	A (0% ≤ substrate protein remaining % ≤ 80%)	20 to 30%		40 to 50%							
40 to 53%	80 to 100%	O=C1CCC(N2Cc3cc(CN4CCC(c5cccc(C(F)(F)F)c5)CC4)ccc3C2=S)C(=O)N1 (stereo not shown) [GT-08623, 3-(1-thioxo-5-((4-(3-(trifluoromethyl)phenyl)piperidin-1-yl)methyl)isoindolin-2-yl)piperidine-2,6-dione]	B (80%< substrate protein remaining %≤ 100%)	B (80%< substrate protein remaining %≤ 100%)	A (0% ≤ substrate protein remaining % ≤ 80%)	B (80%< substrate protein remaining %≤ 100%)	B (80%< substrate protein remaining %≤ 100%)	B (80%< substrate protein remaining %≤ 100%)	30 to 40%		40 to 50%							
60 to 80%	80 to 100%	O=C1CCC(N2Cc3c(CN4CCN(c5cc(Cl)ccn5)CC4)cccc3C2=S)C(=O)N1 (stereo not shown) [GT-08695, 3-(4-((4-(4-chloropyridin-2-yl)piperazin-1-yl)methyl)-1-thioxoisoindolin-2-yl)piperidine-2,6-dione]	B (80%< substrate protein remaining %≤ 100%)	B (80%< substrate protein remaining %≤ 100%)	B (80%< substrate protein remaining %≤ 100%)	B (80%< substrate protein remaining %≤ 100%)	A (0% ≤ substrate protein remaining % ≤ 80%)	B (80%< substrate protein remaining %≤ 100%)	20 to 30%		40 to 50%							
60 to 80%	80 to 100%	Cc1cc2c(C3=CCN(Cc4cccc5c4CN(C4CCC(=O)NC4=O)C5=S)CC3)ncnc2s1 (stereo not shown) [GT-08947, 3-(4-((4-(6-methylthieno[2,3-d]pyrimidin-4-yl)-3,6-dihydropyridin-1(2H)-yl)methyl)-1-thioxoisoindolin-2-yl)piperidine-2,6-dione]							30 to 40%		40 to 50%		B (80%< substrate protein remaining %≤ 100%)	B (80%< substrate protein remaining %≤ 100%)	B (80%< substrate protein remaining %≤ 100%)	B (80%< substrate protein remaining %≤ 100%)	A (0% ≤ substrate protein remaining % ≤ 80%)	B (80%< substrate protein remaining %≤ 100%)

The next lines start with the molecule.

Structure (SMILES)	inhibition at 0.5 µM [1]	inhibition at 2 µM [1]	CK1α substrate protein remaining % (CK1α; [3])	IKZF 1 substrate protein remaining % (IKZF1; [3])	IKZF2 substrate protein remaining % (IKZF2; [3])	IKZF3 substrate protein remaining % (IKZF3; [3])	Wee1 substrate protein remaining % (WEE1; [3])	GSPT1 substrate protein remaining % (GSPT1; [3])	inhibition at 0.01 µM [2]	Inhibition Rate at 500 nM (%) ([2]; MM.1S, 96 hours)	inhibition at 0.5 µM [2]	Inhibition Rate at 10 nM (%) ([2]; MM.1S, 10 nM, 96 hours)	CK1α substrate protein remaining % (CK1α; [4])	IKZF 1 substrate protein remaining % (IKZF1; [4])	IKZF2 substrate protein remaining % (IKZF2; [4])	IKZF3 substrate protein remaining % (IKZF3; [4])	Wee1 substrate protein remaining % (WEE1; [4])	GSPT1 substrate protein remaining % (GSPT1; [4])
O=C1CCC(N2Cc3c(CN4C5CC4CN(c4cccc(Cl)c4Cl)C5)cccc3C2=S)C(=O)N1 (stereo not shown) [GT-08465, 3-(4-((3-(2,3-dichlorophenyl)-3,6-diazabicyclo[3.1.1]heptan-6-yl)methyl)-1-thioxoisoindolin-2-yl)piperidine-2,6-dione]	40 to 53%	60 to 80%	B (80%< substrate protein remaining %≤ 100%)	B (80%< substrate protein remaining %≤ 100%)	B (80%< substrate protein remaining %≤ 100%)	B (80%< substrate protein remaining %≤ 100%)	B (80%< substrate protein remaining %≤ 100%)	A (0% ≤ substrate protein remaining % ≤ 80%)	40 to 50%	la5								
O=C1CCC(N2Cc3c(CN4CC5CC(C4)N5c4cccc(Cl)c4Cl)cccc3C2=S)C(=O)N1 (stereo not shown) [GT-08466, 3-(4-((6-(2,3-dichlorophenyl)-3,6-diazabicyclo[3.1.1]heptan-3-yl)methyl)-1-thioxoisoindolin-2-yl)piperidine-2,6-dione]	30 to 40%	60 to 80%	B (80%< substrate protein remaining %≤ 100%)	B (80%< substrate protein remaining %≤ 100%)	A (0% ≤ substrate protein remaining % ≤ 80%)	B (80%< substrate protein remaining %≤ 100%)	B (80%< substrate protein remaining %≤ 100%)	A (0% ≤ substrate protein remaining % ≤ 80%)	20 to 30%	la7								
O=C1CCC(N2Cc3cc(CN4CC5CC(C4)N5c4cccc(Cl)c4Cl)ccc3C2=S)C(=O)N1 (stereo not shown) [GT-08476, 3-(5-((6-(2,3-dichlorophenyl)-3,6-diazabicyclo[3.1.1]heptan-3-yl)methyl)-1-thioxoisoindolin-2-yl)piperidine-2,6-dione]	60 to 80%	80 to 100%	B (80%< substrate protein remaining %≤ 100%)	B (80%< substrate protein remaining %≤ 100%)	B (80%< substrate protein remaining %≤ 100%)	A (0% ≤ substrate protein remaining % ≤ 80%)	B (80%< substrate protein remaining %≤ 100%)	B (80%< substrate protein remaining %≤ 100%)	5 to 10%		40 to 50%							
O=C1CCC(N2Cc3c(CN4CC=C(c5ncnc6sc7c(c56)CCCC7)CC4)cccc3C2=S)C(=O)N1 (stereo not shown) [GT-08962, 3-(4-((4-(5,6,7,8-tetrahydrobenzo[4,5]thieno[2,3-d]pyrimidin-4-yl)-3,6-dihydropyridin-1(2H)-yl)methyl)-1-thioxoisoindolin-2-yl)piperidine-2,6-dione]	40 to 53%	80 to 100%							30 to 40%		40 to 50%		B (80%< substrate protein remaining %≤ 100%)	B (80%< substrate protein remaining %≤ 100%)	B (80%< substrate protein remaining %≤ 100%)	B (80%< substrate protein remaining %≤ 100%)	A (0% ≤ substrate protein remaining % ≤ 80%)	A (0% ≤ substrate protein remaining % ≤ 80%)
